Results taken from paper PMC2965028 (Biochemistry, 2010).

Tests used:
wt HIV-1 IN = wt HIV-1 IN (Human immunodeficiency virus type 1 group M subtype B, UniProt P12497); conditions: read-out: IC50, inhibition with two blunt-ended DNA molecules in SC; cited from earlier work
wt IN-DNA complex = conditions: cited from earlier work
[1] = target: HIV-1 synaptic complex (SC) (Human immunodeficiency virus type 1 group M subtype B, UniProt P12497); assay: Trapping of SC and H-SC on native agarose gels; type: biochemical; conditions: wt IN 20 nM, U5 DNA 0.5 nM, 2 h at 37°C, native agarose gel
Q148H IN = Q148H IN (Human immunodeficiency virus type 1 group M subtype B, UniProt P12497, Q1295H); type: biochemical, HIV-1; conditions: IC50 Q148H vs IC50 wt IN
N155H IN-DNA complex = conditions: cited from earlier work
HIV-1 = conditions: in 50% normal human serum; cited from earlier work
N155H IN = N155H IN (Human immunodeficiency virus type 1 group M subtype B, UniProt P12497, N1302H); type: biochemical, HIV-1; conditions: IC50 N155H vs IC50 wt IN

Compound | Dissociation half-life from wt IN-DNA complex (wt IN-DNA complex) | Inhibitor concentration at which trapped SC and H-SC were first detected [1] | Dissociation half-life from N155H IN-DNA complex (N155H IN-DNA complex) | also measured
O=C(NCc1ccc(F)cc1)c1nc(N2CCCCS2(=O)=O)c2cccnc2c1O [L-870,810] |  |  |  | IC50 (wt HIV-1 IN): ~32 nM
CCN1C[C@H](C)n2c(c(O)c3c(=O)n(Cc4ccc(F)c(Cl)c4)nc(C(=O)NC)c32)C1=O [MK-2048] | ~32 h | ≥ 10 nM | ~4 h | Fold change in IC50 for FS products, Q148H IN relative to wt IN (resistance) (Q148H IN): 2 fold; Antiviral activity IC95 (HIV-1): 41 nM
Cc1nnc(C(=O)NC(C)(C)c2nc(C(=O)NCc3ccc(F)cc3)c(O)c(=O)n2C)o1 [RAL, raltegravir] | 7.3 h |  | ~0.7 h | 
O=C(O)C(=O)/C=C(\O)c1ccc2c(c1)c(=O)c(/C(O)=C/C(=O)C(=O)O)cn2Cc1ccc(F)cc1 [RDS 1997] |  | ≥ 50 nM |  | 
O=C(O)C(=O)C=C(O)c1cn(Cc2ccc(F)cc2)c2cc(N3CCCC3)ccc2c1=O [RDS 2197] |  | ≥ 250 nM |  | Fold change in IC50 for FS products, N155H IN relative to wt IN (resistance) (N155H IN): 1.3 fold
